The target of test [1] is Glyceraldehyde-3-phosphate dehydrogenase (Homo sapiens, UniProt P04406).
Test [2] has as its target T1, Alkaline phosphatase, tissue-nonspecific isozyme (Homo sapiens, UniProt P05186).
T1 sequence (P05186 whole entry): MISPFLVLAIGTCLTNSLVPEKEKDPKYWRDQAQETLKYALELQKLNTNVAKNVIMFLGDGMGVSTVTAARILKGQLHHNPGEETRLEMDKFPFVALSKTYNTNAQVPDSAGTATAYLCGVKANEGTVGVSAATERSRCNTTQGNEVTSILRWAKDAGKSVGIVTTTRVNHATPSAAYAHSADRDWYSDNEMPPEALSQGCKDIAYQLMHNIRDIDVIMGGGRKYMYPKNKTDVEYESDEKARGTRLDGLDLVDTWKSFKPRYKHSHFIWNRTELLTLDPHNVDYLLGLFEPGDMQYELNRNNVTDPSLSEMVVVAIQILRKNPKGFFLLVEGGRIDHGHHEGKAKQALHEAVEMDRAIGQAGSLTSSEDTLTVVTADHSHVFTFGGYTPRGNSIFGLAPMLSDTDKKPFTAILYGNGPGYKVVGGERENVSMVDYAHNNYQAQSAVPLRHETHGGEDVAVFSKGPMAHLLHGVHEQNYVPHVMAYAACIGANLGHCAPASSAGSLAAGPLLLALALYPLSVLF
Kind of test: human TNAP enzyme inhibitors, SAR follow-up, biochemical, luminescent, dose response (AID 1056).

The next test concerns the target T2, Coagulation factor XII (Homo sapiens, UniProt P00748).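 Further: activated factor XIIa alpha cleaving a fluorogenic AMC peptide substrate; inhibitor potency from loss of enzyme activity.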
T2 sequence (P00748 whole entry): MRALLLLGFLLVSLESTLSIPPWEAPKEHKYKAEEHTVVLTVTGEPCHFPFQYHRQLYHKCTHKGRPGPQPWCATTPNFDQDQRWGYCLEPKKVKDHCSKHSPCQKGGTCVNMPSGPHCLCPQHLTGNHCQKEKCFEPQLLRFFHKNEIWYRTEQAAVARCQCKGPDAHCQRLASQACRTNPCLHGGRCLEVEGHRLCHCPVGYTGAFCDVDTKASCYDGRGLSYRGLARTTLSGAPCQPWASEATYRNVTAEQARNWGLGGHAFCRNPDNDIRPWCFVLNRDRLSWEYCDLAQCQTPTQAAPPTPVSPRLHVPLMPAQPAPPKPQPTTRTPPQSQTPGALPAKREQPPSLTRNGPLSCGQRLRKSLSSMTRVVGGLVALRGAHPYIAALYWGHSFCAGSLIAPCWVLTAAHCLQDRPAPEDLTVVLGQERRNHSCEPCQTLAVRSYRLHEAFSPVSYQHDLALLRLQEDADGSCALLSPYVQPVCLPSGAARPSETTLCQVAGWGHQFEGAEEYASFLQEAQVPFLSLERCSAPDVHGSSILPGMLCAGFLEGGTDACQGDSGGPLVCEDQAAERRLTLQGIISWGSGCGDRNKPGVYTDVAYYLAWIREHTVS
It counts as functional.

In test [3] the target is Dual specificity tyrosine-phosphorylation-regulated kinase 1A (Rattus norvegicus, UniProt Q63470). It counts as biochemical, Homo sapiens.
The target of test [4] is Peroxisome proliferator-activated receptor gamma/Nuclear receptor coactivator 3 (Homo sapiens, UniProt P37231). In words: TR-FRET dose response biochemical High Throughput Screening assay for agonists of the steroid receptor coactivator 3 (SRC-3) recruitment by the peroxisome proliferator-activated receptor gamma (PPAR gamma): non-selective agonists. [Related pubchem assays: 1301 (Confirmation screen.), 1048 (Primary screen.)]. It is filed as functional. A general note: Time-resolved FRET reads energy transfer from a long-lived donor to a nearby acceptor.

In test [5] the target is T3, SUMO-activating enzyme (Homo sapiens, UniProt Q9UBT2). In words: SUMOylation inhibitor hit validation, confirmation, SUMOylation inhibitor project, biochemical, AlphaScreen (AID 2018). It is filed as functional.
Test [6] concerns the target T4, Fatty acid synthase (Homo sapiens, UniProt P49327). Kind of test: FAS thioesterase domain inhibitors, dose response, biochemical, kinetic fluorescence intensity (AID 624326).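 Further: rate of fluorescence rise from hydrolysis of a fluorogenic O-methyl fluorescein ester substrate.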 It counts as functional.
The next test has as its target Major prion protein (Homo sapiens, UniProt P04156). It is filed as functional, cell-based.
The target in test [7] is T4, Fatty acid synthase. In words: FAS thioesterase domain inhibitors, dose response, biochemical, endpoint fluorescence intensity, uHTS hits (AID 624327).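 Further: fluorescence from hydrolysis of an O-methyl fluorescein acyl ester substrate by the enzyme.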 It is filed as functional.
The target in test [8] is Peroxisome proliferator-activated receptor gamma/Nuclear receptor coactivator 2 (Homo sapiens, UniProt P37231). Kind of test: TR-FRET dose response biochemical High Throughput Screening assay for agonists of the steroid receptor coactivator 2 (SRC-2) recruitment by the peroxisome proliferator-activated receptor gamma (PPAR gamma): non-selective agonists. [Related pubchem assays: 1297, 1032 ]. It is filed as functional.

Test [9] addresses T3, SUMO-activating enzyme. Kind of test: inhibitors of in vitro SUMOylation cascade, primary screen, biochemical, HTRF, uHTS (AID 2006). It counts as protein-complex assay.
Test [10] addresses T5, Short transient receptor potential channel 4 (Mus musculus, UniProt Q9QUQ5).
T5 sequence (Q9QUQ5 whole entry): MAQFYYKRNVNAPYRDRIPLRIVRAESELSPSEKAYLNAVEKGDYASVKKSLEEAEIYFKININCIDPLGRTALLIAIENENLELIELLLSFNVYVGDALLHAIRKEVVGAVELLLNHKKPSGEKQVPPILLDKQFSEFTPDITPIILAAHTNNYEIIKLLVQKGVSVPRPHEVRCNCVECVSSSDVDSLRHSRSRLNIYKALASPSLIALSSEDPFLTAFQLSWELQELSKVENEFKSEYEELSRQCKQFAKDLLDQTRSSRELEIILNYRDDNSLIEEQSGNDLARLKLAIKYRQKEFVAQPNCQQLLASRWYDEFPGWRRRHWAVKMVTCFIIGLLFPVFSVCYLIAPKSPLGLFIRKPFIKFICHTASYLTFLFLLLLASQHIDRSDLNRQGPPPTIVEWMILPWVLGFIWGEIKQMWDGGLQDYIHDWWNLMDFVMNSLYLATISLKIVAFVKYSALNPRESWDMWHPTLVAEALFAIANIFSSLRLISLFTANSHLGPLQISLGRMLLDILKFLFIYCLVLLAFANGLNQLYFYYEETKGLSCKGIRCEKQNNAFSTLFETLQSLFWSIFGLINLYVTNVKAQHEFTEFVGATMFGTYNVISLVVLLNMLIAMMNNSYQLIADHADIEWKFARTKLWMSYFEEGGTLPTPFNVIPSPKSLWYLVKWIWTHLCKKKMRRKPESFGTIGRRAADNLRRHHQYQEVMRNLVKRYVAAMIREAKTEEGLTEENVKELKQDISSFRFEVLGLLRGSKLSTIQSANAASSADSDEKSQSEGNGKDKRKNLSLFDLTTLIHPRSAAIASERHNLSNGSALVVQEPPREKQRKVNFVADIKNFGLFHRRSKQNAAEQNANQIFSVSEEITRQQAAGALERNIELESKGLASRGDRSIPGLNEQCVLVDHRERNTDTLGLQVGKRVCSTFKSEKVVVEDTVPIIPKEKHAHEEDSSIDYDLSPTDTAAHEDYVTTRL
In words: mouse TRPC4 channel inhibitors, dose response, cell-based, HEK293 TRPC4/mu-opioid, Fluo-4 calcium (AID 434942).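 Further: potency of inhibitors blocking the TRPC4 calcium response.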 It is filed as functional.

Test [11] concerns the target Peroxisome proliferator-activated receptor gamma/Nuclear receptor coactivator 1 (Homo sapiens, UniProt P37231). Kind of test: TR-FRET dose response biochemical High Throughput Screening assay for agonists of the steroid receptor coactivator 1 (SRC-1) recruitment by the peroxisome proliferator-activated receptor gamma (PPAR gamma): non-selective agonists. [Related pubchem assays (depositor defined):AID1300, AID1808, AID504735, AID631]. It is filed as protein assay.

Test [12] relates to HEK293. In words: NOD1 signaling inhibitors, primary screen, cell-based, luminescence, uHTS (AID 1578). It counts as functional. The note with it: Homo sapiens.
Test [13] has as its system HEK293. Kind of test: NOD2 signaling inhibitors in MDP-stimulated cells, cell-based, uHTS, luminescence (AID 2001). It is filed as functional. The note with it: Homo sapiens.
For test [14], the system named is HEK293. Kind of test: cells. The note with it: Homo sapiens. It is filed as functional, cell-based.
Test [15] has as its system HEK293. Kind of test: cells. It counts as functional, cell-based. The note with it: Homo sapiens. This is another data set of the same source.
Test [16] has as its target Photoreceptor-specific nuclear receptor (Homo sapiens, UniProt Q9Y5X4). It is filed as functional, cell-based.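 Further: CHO-S cells with Gal4-NCOR and VP16-NR2E3 two-hybrid luciferase reporter.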
Test [17] deals with Glucose-6-phosphate 1-dehydrogenase (Homo sapiens, UniProt P11413). In words: human G6PD enzyme inhibitors, dose response, selectivity assay for P. falciparum G6PD inhibitor project, biochemical, fluorescence (AID 504792). It is filed as functional.
In test [18] the target is T6, Adenosylmethionine-8-amino-7-oxononanoate aminotransferase (Mycobacterium tuberculosis, UniProt P9WQ81).
T6 sequence (P9WQ81 whole entry): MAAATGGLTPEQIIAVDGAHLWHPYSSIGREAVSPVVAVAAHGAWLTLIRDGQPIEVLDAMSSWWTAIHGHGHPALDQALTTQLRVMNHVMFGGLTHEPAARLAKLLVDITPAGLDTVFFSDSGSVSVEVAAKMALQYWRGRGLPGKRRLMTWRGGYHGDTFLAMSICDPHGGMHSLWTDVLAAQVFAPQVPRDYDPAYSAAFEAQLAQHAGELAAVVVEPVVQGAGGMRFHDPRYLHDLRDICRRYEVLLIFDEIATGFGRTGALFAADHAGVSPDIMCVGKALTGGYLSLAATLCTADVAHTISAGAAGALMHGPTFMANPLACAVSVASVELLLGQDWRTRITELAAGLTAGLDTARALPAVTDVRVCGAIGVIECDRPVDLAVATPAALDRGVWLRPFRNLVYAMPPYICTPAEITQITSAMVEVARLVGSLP
Kind of test: Mycobacterium tuberculosis BioA enzyme inhibitor Measured in Biochemical System Using Plate Reader - 2163-02_Inhibitor_Dose_CherryPick_Activity. It counts as functional, Mycobacterium tuberculosis UT205.

The structures appear in SMILES notation. Active and inactive are the calls of the source.

As to `O=S(=O)(Nc1ccc2ccccc2c1)c1cc(Cl)ccc1F`, the IC50 (usually the point on the concentration scale where inhibition reaches its midpoint) in test [1] was > 10 µM (inconclusive); in test [2] it was > 10 µM (inactive).

As for `O=C(NNc1c(Cl)cc(Cl)cc1Cl)c1nnc(O)c2ccccc12`, the IC50 on Coagulation factor XII is > 50 µM (inactive).

Turning to `O=C1N=C(NS(=O)(=O)Cc2ccccc2)S/C1=C/c1ccc2c(c1)OCO2`, the AC50 (in general, the concentration giving half of the maximal activity seen) in test [3] was 2.56 µM (active).

As for `N#Cc1c(-c2cccs2)nc(SCc2ccc(Cl)cc2)[nH]c1=O`, the EC50 (as a rule, the concentration that produces a half-maximal response) was > 79.4 µM (not active) in test [4], > 79.4 µM (not active) in test [8], 4.22 µM (active) in test [10] and > 79.4 µM (inactive) in [11]. Besides, the IC50 at SUMO-activating enzyme [5] was 9.93 µM (active); at Fatty acid synthase [6] it was 5.61 µM (active); at Major prion protein, 1.05 µM (active); on Fatty acid synthase [7] it was 6.44 µM (active); at SUMO-activating enzyme [9], 18 µM (active).

For `N#Cc1c(O)nc(SCc2ccc(Cl)cc2)nc1-c1cccs1`, the EC50 in the test on HEK293 [12] is 4.58 µM (active). In addition, the IC50 in the test on HEK293 [13] is 6.99 µM (inactive); in the test with HEK293 [14] it was 18.9 µM (active); with HEK293 [15], 11.5 µM (active); in the test “cells” it was > 138 µM (inactive).

Turning to `COc1ccc(S(=O)(=O)N2CCCCC2)cc1N=C(S)Nc1cccc(Cl)c1C`, the IC50 in [16] is 0.962 µM (active).

As for `CCC(NC(=O)c1ccc2nc(Cc3ccc(OC)cc3)oc2c1)c1ccncc1` (configuration not stated), the EC50 in the test with HEK293 [12] was 4.58 µM (active). Also, the IC50 with HEK293 [13] was 12.5 µM (inactive); in the test on HEK293 [14], 16.5 µM (active); in the test on HEK293 [15], 8.15 µM (active).

On to `CN(c1ccccc1)S(=O)(=O)c1ccc(NC(=S)NC(=O)c2ccccc2)cc1`, for which, on Coagulation factor XII, the IC50 is > 50 µM (inactive).

As to `Cc1cccc(NC(=O)CSCc2c(C)noc2C)c1C`, the IC50 at Coagulation factor XII is > 50 µM (inactive).

Consider `CC(C)C(NC(=O)CC12CC3CC(CC(C3)C1)C2)C(=O)O` (configuration not stated), for which the IC50 at Coagulation factor XII was > 50 µM (inactive).

On to `CC(C)CNC(=O)c1cc(-c2cc(F)c(Cl)cc2Cl)n[nH]1`, for which the values for the half-inhibitory concentration (IC50) in test [1] and in test [2] were > 10 µM (inconclusive) and 0.27 µM (active), respectively.

Regarding `CCN(CC)CCn1c2ccccc2c(=O)c2c(O)ccc(O)c21`, the AC50 in [3] was 3.16 µM (active). In [17], the IC50 was 64.6 µM (inactive).

For `CCC1(OC(=O)CN(C)C)C(=O)OCc2c1cc1n(c2=O)Cc2cc3c(N)cccc3nc2-1` (configuration not stated), the IC50 in [16] was 2.92 µM (active).

Take `O=C(c1ccccc1F)N1CC[C@@H]2[C@H]1c1cc(Br)ccc1N[C@@H]2CO`: the AC50 in test [18] is 1.53 µM (active).

As for `O=C(C[C@H]1C[C@@H]2c3cc(NC(=O)c4cccnc4)ccc3O[C@@H]2[C@@H](CO)O1)NCC(F)(F)F`, the AC50 in test [18] is 16.8 µM (active).

For `CCN1[C@H](C(=O)NCc2ccccc2)[C@@H](CO)[C@@H]2Cn3c(ccc(-c4cccnc4)c3=O)[C@@H]21`, in test [18], the AC50 was 13.2 µM (active).

For the compound `CC(=O)Oc1ccc2c(c1)C(=O)c1ccccc1C2=O`, the AC50 in test [3] is 36.2 µM (active).

In the case of `COc1ccc(OC)c(CNc2cnc3ccccc3c2)c1`, the IC50 was > 100 µM (not active) in test [1] and > 100 µM (inactive) in test [2].

Values taken from ChEMBL document CHEMBL1201862, “PubChem BioAssay data set” (2004).
